Assay results reported in US20040157744A1, “Substituted fluoroalkoxyphenylsulfonyl-amino(thio)carbonyltriazolino(thi)ones” (priority 2001, published 2004).
Values belong to the molecule of their own block, whether it stands above or below them.

Columns and labels:
weeds [1] = assay: Pre-emergence test, action against weeds; type: in vivo
Protocol: (§1) Solvent: 5 parts by weight of acetone
(§2) Emulsifier: 1 part by weight of alkylaryl polyglycol ether
(§3) To produce a suitable preparation of active compound, 1 part by weight of active compound is mixed with the stated amount of solvent, the stated amount of emulsifier is added and the concentrate is diluted with water to the desired concentration.
(§4) Seeds of the test plants are sown in normal soil. After 24 hours, the soil is sprayed with the preparation of active compounds such that the particular amount of active compound desired is applied per unit area. The concentration of active compound in the spray liquor is chosen such that the particular amount of active compound desired is applied in 1000 litres of water per hectare.
(§5) After three weeks, the degree of damage to the plants is rated in % damaged in comparison to the development of the untreated control. The figures denote:
(§6) 0%=no effect (like untreated control)

Alopecurus [2] = assay: Pre-emergence test, Alopecurus; type: in vivo; conditions: after three weeks
Protocol: as §1, §2, §3, §4, §5, §6

Amaranthus [3] = assay: Pre-emergence test, Amaranthus; type: in vivo; conditions: after three weeks
Protocol: as §1, §2, §3, §4, §5, §6

Matricaria [4] = assay: Pre-emergence test, Matricaria; type: in vivo; conditions: after three weeks
Protocol: as §1, §2, §3, §4, §5, §6

Solanum = assay: Pre-emergence test, Solanum; type: in vivo; conditions: after three weeks
Protocol: as §1, §2, §3, §4, §5, §6

Viola = assay: Pre-emergence test, Viola; type: in vivo; conditions: after three weeks
Protocol: as §1, §2, §3, §4, §5, §6

Barley = assay: Pre-emergence test, Barley; type: in vivo; conditions: 4 g ai/ha, after three weeks, vs untreated control (Table A-2)
Protocol: as §1, §2, §3, §4, §5, §6

Wheat = assay: Pre-emergence test, Wheat; type: in vivo; conditions: after three weeks
Protocol: as §1, §2, §3, §4, §5, §6

weeds [5] = assay: Post-emergence test, action against weeds; type: in vivo
Protocol: as §1, §2, §3
(§7) Test plants of a height of 5-15 cm are sprayed with the preparation of active compound such that the particular amounts of active compound desired are applied per unit area. The concentration of the spray liquor is chosen such that the particular amounts of active compound desired are applied in 10001 of water/ha.
(§8) After three weeks, the degree of damage to the plants is rated in % damage in comparison to the development of the untreated control.
as §6

Setaria = assay: Post-emergence test, Setaria; type: in vivo; conditions: 15 g ai/ha, after three weeks, vs untreated control (Table B-1)
Protocol: as §1, §2, §3, §7, §8, §6

Abutilon = assay: Post-emergence test, Abutilon; type: in vivo; conditions: 15 g ai/ha, after three weeks
Protocol: as §1, §2, §3, §7, §8, §6

Amaranthus [6] = assay: Post-emergence test, Amaranthus; type: in vivo; conditions: 15 g ai/ha, after three weeks
Protocol: as §1, §2, §3, §7, §8, §6

Matricaria [7] = assay: Post-emergence test, Matricaria; type: in vivo; conditions: 15 g ai/ha, after three weeks
Protocol: as §1, §2, §3, §7, §8, §6

Stellaria [8] = assay: Post-emergence test, Stellaria; type: in vivo; conditions: 15 g ai/ha, after three weeks
Protocol: as §1, §2, §3, §7, §8, §6

Xanthium = assay: Post-emergence test, Xanthium; type: in vivo; conditions: 15 g ai/ha, after three weeks, vs untreated control (Table B-1)
Protocol: as §1, §2, §3, §7, §8, §6

Echinochloa [9] = assay: Pre-emergence test, Echinochloa; type: in vivo; conditions: 30 g ai/ha, after three weeks
Protocol: as §1, §2, §3, §4, §5, §6

Lolium [10] = assay: Pre-emergence test, Lolium; type: in vivo; conditions: 30 g ai/ha, after three weeks
Protocol: as §1, §2, §3, §4, §5, §6

Galium = assay: Pre-emergence test, Galium; type: in vivo; conditions: 30 g ai/ha, after three weeks
Protocol: as §1, §2, §3, §4, §5, §6

Stellaria [11] = assay: Pre-emergence test, Stellaria; type: in vivo; conditions: 30 g ai/ha, after three weeks
Protocol: as §1, §2, §3, §4, §5, §6

Sugar beet = assay: Pre-emergence test, Sugar beet; type: in vivo; conditions: 30 g ai/ha, after three weeks, vs untreated control (Table A-5)
Protocol: as §1, §2, §3, §4, §5, §6

Alopecurus [12] = assay: Post-emergence test, Alopecurus; type: in vivo; conditions: 15 g ai/ha, after three weeks, vs untreated control (Table B-2)
Protocol: as §1, §2, §3, §7, §8, §6

Echinochloa [13] = assay: Post-emergence test, Echinochloa; type: in vivo; conditions: 15 g ai/ha, after three weeks, vs untreated control (Table B-2)
Protocol: as §1, §2, §3, §7, §8, §6

Lolium [14] = assay: Post-emergence test, Lolium; type: in vivo; conditions: 15 g ai/ha, after three weeks, vs untreated control (Table B-2)
Protocol: as §1, §2, §3, §7, §8, §6

[15] = 4 g ai/ha, vs untreated control (Table A-2)
[16] = 8 g ai/ha, vs untreated control (Table A-1)
[17] = vs untreated control (Table B-1)
[18] = 30 g ai/ha, vs untreated control (Table A-3)
[19] = vs untreated control (Table A-3)
[20] = 30 g ai/ha, vs untreated control (Table A-5)
[21] = vs untreated control (Table A-5)
[22] = 30 g ai/ha, vs untreated control (Table A-4)
[23] = vs untreated control (Table A-4)
[24] = vs untreated control (Table B-2)

Structure (SMILES): CCc1ccccc1S(=O)(=O)N(OCCF)C(=O)n1nc(C)n(C2CC2)c1=O [Ex. 1, 4-cyclopropyl-5-methyl-2-[(2-fluoro-ethoxy)-6-ethyl-phenylsulphonylaminocarbonyl]-2,4-dihydro-3H-1,2,4-triazol-3-one]
melting point: 147 °C

Structure (SMILES): CCCOc1cccc(OCCF)c1S(=O)(=O)NC(=O)n1nc(OCC)n(C)c1=O [Ex. 32]
action against weeds (weeds [1]): very strong action | degree of damage, Alopecurus (Alopecurus [2]; [16]): 100% | degree of damage, Amaranthus (Amaranthus [3]; [16]): 100% | degree of damage, Matricaria (Matricaria [4]; [16]): 100% | degree of damage, Solanum (Solanum; [16]): 100% | degree of damage, Viola (Viola; [16]): 100% | action against weeds (weeds [5]): very strong action | degree of damage, Setaria (Setaria): 95% | degree of damage, Abutilon (Abutilon; [17]): 100% | degree of damage, Amaranthus (Amaranthus [6]; [17]): 100% | degree of damage, Matricaria (Matricaria [7]; [17]): 100% | degree of damage, Stellaria (Stellaria [8]; [17]): 100% | degree of damage, Xanthium (Xanthium): 100% | melting point: 132 °C

Structure (SMILES): CCOc1cccc(OCCF)c1S(=O)(=O)NC(=O)n1nc(OCC)n(C)c1=O [Ex. 33]
action against weeds (weeds [5]): very strong action | degree of damage, Abutilon (Abutilon; [24]): 100% | degree of damage, Amaranthus (Amaranthus [6]; [24]): 100% | degree of damage, Matricaria (Matricaria [7]; [24]): 100% | degree of damage, Stellaria (Stellaria [8]; [24]): 100% | degree of damage, Alopecurus (Alopecurus [12]): 95% | degree of damage, Echinochloa (Echinochloa [13]): 100% | degree of damage, Lolium (Lolium [14]): 95% | melting point: 157 °C

The next lines start with results.

melting point: 123 °C
Structure (SMILES): CCCOc1nn(C(=O)NS(=O)(=O)c2c(OCC)cccc2OCCF)c(=O)n1C [Ex. 34]
action against weeds (weeds [1]): very strong action | degree of damage, Alopecurus (Alopecurus [2]; [15]): 100% | degree of damage, Amaranthus (Amaranthus [3]; [15]): 95% | degree of damage, Matricaria (Matricaria [4]; [15]): 100% | degree of damage, Solanum (Solanum; [15]): 95% | degree of damage, Viola (Viola; [15]): 95% | degree of damage, Barley (Barley): 10% | degree of damage, Wheat (Wheat; [15]): 0%

melting point: 120 °C
Structure (SMILES): COc1nn(C(=O)NS(=O)(=O)c2c(C)cccc2OCCCF)c(=O)n1C [Ex. 41]
action against weeds (weeds [1]): very strong action | degree of damage, Amaranthus (Amaranthus [3]; [18]): 95% | degree of damage, Matricaria (Matricaria [4]; [18]): 100% | degree of damage, Wheat (Wheat; [18]): 0% | degree of damage, Echinochloa (Echinochloa [9]; [19]): 95% | degree of damage, Lolium (Lolium [10]; [19]): 90% | degree of damage, Galium (Galium; [19]): 100% | degree of damage, Stellaria (Stellaria [11]; [19]): 100%

melting point: 130 °C
Structure (SMILES): CCCc1cccc(OCCCF)c1S(=O)(=O)NC(=O)n1nc(N(C)C)n(C2CC2)c1=O [Ex. 114]
action against weeds (weeds [1]): very strong action | degree of damage, Alopecurus (Alopecurus [2]; [20]): 95% | degree of damage, Amaranthus (Amaranthus [3]; [20]): 95% | degree of damage, Lolium (Lolium [10]; [21]): 95% | degree of damage, Galium (Galium; [21]): 80% | degree of damage, Stellaria (Stellaria [11]; [21]): 95% | degree of damage, Sugar beet (Sugar beet): 0%

melting point: 140 °C
Structure (SMILES): CCc1cccc(OCCCF)c1S(=O)(=O)NC(=O)n1nc(CC)n(C2CC2)c1=O [Ex. 93]
action against weeds (weeds [1]): very strong action | degree of damage, Alopecurus (Alopecurus [2]; [22]): 95% | degree of damage, Amaranthus (Amaranthus [3]; [22]): 100% | degree of damage, Viola (Viola; [22]): 100% | degree of damage, Echinochloa (Echinochloa [9]; [23]): 100% | degree of damage, Lolium (Lolium [10]; [23]): 95% | degree of damage, Galium (Galium; [23]): 95% | degree of damage, Stellaria (Stellaria [11]; [23]): 100%
